The values below come from patent US9365522B2, “Pyrazole amide derivative” (AMGEN INC., priority 2015, dated 2016).

This experiment concerns the target T1, human RORγ-LBD (Homo sapiens, UniProt P51449).
T1 construct: made in house; host or cells: E. coli (BL-21)
T1 sequence (P51449 262-518): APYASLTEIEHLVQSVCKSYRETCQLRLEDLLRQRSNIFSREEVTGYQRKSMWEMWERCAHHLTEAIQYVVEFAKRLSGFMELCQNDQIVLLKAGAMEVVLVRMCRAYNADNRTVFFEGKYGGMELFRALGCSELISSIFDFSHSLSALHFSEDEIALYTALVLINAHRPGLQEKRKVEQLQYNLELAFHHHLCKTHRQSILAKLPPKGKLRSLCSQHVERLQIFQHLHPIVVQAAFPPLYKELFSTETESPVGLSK
In words: ROR gamma coactivator peptide recruitment Alphascreen assay (RORγ-LBD binding to GRIP1 coactivator peptide). The class given is biochemical. The following applies: 5 nM human RORγ-LBD, 30 nM 7-β-hydroxycholesterol, 50 nM biotinylated GRIP1 coactivator peptide, overnight incubation at room temperature; read-out: result (pIC50, RORγ coactivator peptide recruitment Alphascreen assay) (converted). In short, it runs like this: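 Alphascreen proximity read-out after overnight room-temperature incubation, yielding pIC50 from 1-in-2 compound series (2.5% DMSO final). Mixture: 50 nM biotin-GRIP1 peptide, 30 nM 7-β-hydroxycholesterol agonist, 5 nM recombinant 6×His:Flag human RORγ-LBD (aa 262-518), 50 mM HEPES pH 7.4.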
On the technique in general: Alpha assays give light when donor and acceptor beads are brought close together.

Turning to `CC1(C)CC(CN(CC(=O)c2c(F)cccc2Cl)C(=O)c2cnn([C@H]3CC[C@](C)(C(=O)O)CC3)c2C(F)(F)F)C1` [Example 595, trans-4-(4-((2-(2-chloro-6-fluorophenyl)-2-oxoethyl)((3,3-dimethylcyclobutyl)methyl)carbamoyl)-5-(trifluoromethyl)-1H-pyrazol-1-yl)-1-methylcyclohexanecarboxylic acid], the IC50 is 5.62 nM.

For `CC1(C)CC(CN(CC(=O)c2c(F)cccc2Cl)C(=O)c2cnn([C@H]3CC[C@@H](C(=O)O)CC3)c2C(F)(F)F)C1` [Example 596, cis-4-(4-((2-(2-chloro-6-fluorophenyl)-2-oxoethyl)((3,3-dimethylcyclobutyl)methyl)carbamoyl)-5-(trifluoromethyl)-1H-pyrazol-1-yl)cyclohexanecarboxylic acid], the IC50 is 151 nM.

Consider `CC1(C)CC(CN(CC(=O)c2c(F)cccc2F)C(=O)c2cnn([C@H]3CC[C@@H](C(=O)O)CC3)c2C(F)(F)F)C1` [Example 597, cis-4-(4-((2-(2,6-difluorophenyl)-2-oxoethyl)((3,3-dimethylcyclobutyl)methyl)carbamoyl)-5-(trifluoromethyl)-1H-pyrazol-1-yl)cyclohexanecarboxylic acid], for which the IC50 was 2400 nM.

As to `CC1(C)CC(CN(CC(=O)c2c(F)cccc2F)C(=O)c2cnn([C@H]3CC[C@](C)(C(=O)O)CC3)c2C(F)(F)F)C1` [Example 598, trans-4-(4-((2-(2,6-difluorophenyl)-2-oxoethyl)((3,3-dimethylcyclobutyl)methyl)carbamoyl)-5-(trifluoromethyl)-1H-pyrazol-1-yl)-1-methylcyclohexanecarboxylic acid], the IC50 was 115 nM.

Consider `CC1(C)CC(N(CC(=O)c2c(Cl)cccc2Cl)C(=O)c2cnn([C@H]3CC[C@](C)(C(=O)O)CC3)c2C(F)(F)F)C1` [Example 599, trans-4-(4-((2-(2,6-dichlorophenyl)-2-oxoethyl)(3,3-dimethylcyclobutyl)carbamoyl)-5-(trifluoromethyl)-1H-pyrazol-1-yl)-1-methylcyclohexanecarboxylic acid], for which the IC50 is 13.8 nM.

As for `CC1(C)CC(N(CC(=O)c2c(Cl)cccc2Cl)C(=O)c2cnn([C@H]3CC[C@@H](C(=O)O)CC3)c2C(F)(F)F)C1` [Example 600, cis-4-(4-((2-(2,6-dichlorophenyl)-2-oxoethyl)(3,3-dimethylcyclobutyl)carbamoyl)-5-(trifluoromethyl)-1H-pyrazol-1-yl)cyclohexanecarboxylic acid], the IC50 was 794 nM.

Regarding `CC1(C)C[C@H](CN(CC(=O)c2c(Cl)cccc2Cl)C(=O)c2cnn([C@H]3CC[C@](C)(C(=O)O)CC3)c2C(F)(F)F)O1` [Example 601, trans-4-(4-((2-(2,6-dichlorophenyl)-2-oxoethyl)(((2R)-4,4-dimethyl-2-oxetanyl)methyl)carbamoyl)-5-(trifluoromethyl)-1H-pyrazol-1-yl)-1-methylcyclohexanecarboxylic acid], the IC50 was 42.7 nM.

For the compound `COc1cccc(F)c1C(=O)CN(CC1CC(C)(C)C1)C(=O)c1cnn([C@H]2CC[C@](C)(C(=O)O)CC2)c1C(F)(F)F` [Example 602, trans-4-(4-(((3,3-dimethylcyclobutyl)methyl)(2-(2-fluoro-6-methoxyphenyl)-2-oxoethyl)carbamoyl)-5-(trifluoromethyl)-1H-pyrazol-1-yl)-1-methylcyclohexanecarboxylic acid], the IC50 was 174 nM.

In the case of `CC1(C)CC(CN(CC(=O)c2ccccc2C#N)C(=O)c2cnn([C@H]3CC[C@](C)(C(=O)O)CC3)c2C(F)(F)F)C1` [Example 604, trans-4-(4-((2-(2-cyanophenyl)-2-oxoethyl)((3,3-dimethylcyclobutyl)methyl)carbamoyl)-5-(trifluoromethyl)-1H-pyrazol-1-yl)-1-methylcyclohexanecarboxylic acid], the IC50 is 6610 nM.

Turning to `CC(C)(C)C[C@H](CO)N(CCc1c(Cl)cccc1Cl)C(=O)c1cnn([C@H]2CC[C@](C)(C(=O)O)CC2)c1C(F)(F)F` [Example 605, trans-4-(4-((2-(2,6-dichlorophenyl)ethyl)((2R)-1-hydroxy-4,4-dimethyl-2-pentanyl)carbamoyl)-5-(trifluoromethyl)-1H-pyrazol-1-yl)-1-methylcyclohexanecarboxylic acid], the IC50 was 151 nM.

On to `C[C@]1(C(=O)O)CC[C@H](n2ncc(C(=O)N(CCc3c(Cl)cncc3Cl)CC3(F)CCCC3)c2C(F)(F)F)CC1` [Example 606, trans-4-(4-((2-(3,5-dichloro-4-pyridinyl)ethyl)((1-fluorocyclopentyl)methyl)carbamoyl)-5-(trifluoromethyl)-1H-pyrazol-1-yl)-1-methylcyclohexanecarboxylic acid], for which the IC50 was 4.47 nM.

On to `COc1cccc(F)c1C(=O)CN(C(=O)c1cnn([C@H]2CC[C@](C)(C(=O)O)CC2)c1C(F)(F)F)C1CCC(C)(C)CC1` [Example 607, trans-4-(4-((4,4-dimethylcyclohexyl)(2-(2-fluoro-6-methoxyphenyl)-2-oxoethyl)carbamoyl)-5-(trifluoromethyl)-1H-pyrazol-1-yl)-1-methylcyclohexanecarboxylic acid], for which the IC50 was 105 nM.

Regarding `COc1cccc(F)c1C(=O)CN(CC1(F)CCCC1)C(=O)c1cnn([C@H]2CC[C@](C)(C(=O)O)CC2)c1C(F)(F)F` [Example 608, trans-4-(4-(((1-fluorocyclopentyl)methyl)(2-(2-fluoro-6-methoxyphenyl)-2-oxoethyl)carbamoyl)-5-(trifluoromethyl)-1H-pyrazol-1-yl)-1-methylcyclohexanecarboxylic acid], the IC50 is 123 nM.

As to `CC1(C)[C@@H]2C[C@H](N(CC(=O)c3c(Cl)cccc3Cl)C(=O)c3cnn([C@H]4CC[C@H](C(=O)O)CC4)c3C(F)(F)F)C[C@@H]21` [Example 610, cis-4-(4-((2-(2,6-dichlorophenyl)-2-oxoethyl)((1R,3r,5S)-6,6-dimethylbicyclo[3.1.0]hex-3-yl)carbamoyl)-5-(trifluoromethyl)-1H-pyrazol-1-yl)cyclohexanecarboxylic acid], the IC50 was 12.3 nM.

Turning to `C[C@]1(C(=O)O)CC[C@H](n2ncc(C(=O)N(CC(=O)c3c(Cl)cccc3Cl)CC3(F)CC3)c2C(F)(F)F)CC1` [Example 611, trans-4-(4-((2-(2,6-dichlorophenyl)-2-oxoethyl)((1-fluorocyclopropyl)methyl)carbamoyl)-5-(trifluoromethyl)-1H-pyrazol-1-yl)-1-methylcyclohexanecarboxylic acid], the IC50 is 6.03 nM.

In the case of `C[C@]12CC[C@](CN(CC(=O)c3c(Cl)cccc3Cl)C(=O)c3cnn([C@H]4CC[C@](C)(C(=O)O)CC4)c3C(F)(F)F)(CC1)C2` [Example 612, trans-4-(4-((2-(2,6-dichlorophenyl)-2-oxoethyl)(((1r,4r)-4-methylbicyclo[2.2.1]hept-1-yl)methyl)carbamoyl)-5-(trifluoromethyl)-1H-pyrazol-1-yl)-1-methylcyclohexanecarboxylic acid], the IC50 was 39.8 nM.

With `O=C(CN(C(=O)c1cnn([C@H]2CC[C@@H](C(=O)O)CC2)c1C(F)(F)F)C1CC2(CCC2)C1)c1c(Cl)cccc1Cl` [Example 613, cis-4-(4-((2-(2,6-dichlorophenyl)-2-oxoethyl)(spiro[3.3]hept-2-yl)carbamoyl)-5-(trifluoromethyl)-1H-pyrazol-1-yl)cyclohexanecarboxylic acid], the IC50 was 110 nM.

In the case of `C[C@H]1CC[C@H](CN(CC(=O)c2c(Cl)cncc2Cl)C(=O)c2cnn([C@H]3CC[C@](C)(C(=O)O)CC3)c2C(F)(F)F)O1` [Example 614, trans-4-(4-((2-(3,5-dichloro-4-pyridinyl)-2-oxoethyl)(((2R,5R)-5-methyltetrahydro-2-furanyl)methyl)carbamoyl)-5-(trifluoromethyl)-1H-pyrazol-1-yl)-1-methylcyclohexanecarboxylic acid], the IC50 is 53.7 nM.

On to `C[C@]12CC[C@](CN(CC(=O)c3c(Cl)cccc3Cl)C(=O)c3cnn([C@H]4CC[C@@H](C(=O)O)CC4)c3C(F)(F)F)(CC1)C2` [Example 615, cis-4-(4-((2-(2,6-dichlorophenyl)-2-oxoethyl)(((1r,4r)-4-methylbicyclo[2.2.1]hept-1-yl)methyl)carbamoyl)-5-(trifluoromethyl)-1H-pyrazol-1-yl)cyclohexanecarboxylic acid], for which the IC50 was 49 nM.

As for `CC1(C)CC[C@H]1N(CC(=O)c1c(Cl)cncc1Cl)C(=O)c1cnn([C@H]2CC[C@](C)(C(=O)O)CC2)c1C(F)(F)F` [Example 616, trans-4-(4-((2-(3,5-dichloro-4-pyridinyl)-2-oxoethyl)((1R)-2,2-dimethylcyclobutyl)carbamoyl)-5-(trifluoromethyl)-1H-pyrazol-1-yl)-1-methylcyclohexanecarboxylic acid], the IC50 is 33.9 nM.

`CC1(C)CC[C@@H]1N(CC(=O)c1c(Cl)cncc1Cl)C(=O)c1cnn([C@H]2CC[C@](C)(C(=O)O)CC2)c1C(F)(F)F` [Example 617, trans-4-(4-((2-(3,5-dichloro-4-pyridinyl)-2-oxoethyl)((1S)-2,2-dimethylcyclobutyl)carbamoyl)-5-(trifluoromethyl)-1H-pyrazol-1-yl)-1-methylcyclohexanecarboxylic acid]: the IC50 is 117 nM.
